From US8530504B2, “Pyrazolothiazole compound” (Eisai R&D Management Co., Ltd., priority 2009, dated 2013) come the findings set out here.

SMILES strings stand for the structures.

Sequence of human CRFR1 (P34998 24-415): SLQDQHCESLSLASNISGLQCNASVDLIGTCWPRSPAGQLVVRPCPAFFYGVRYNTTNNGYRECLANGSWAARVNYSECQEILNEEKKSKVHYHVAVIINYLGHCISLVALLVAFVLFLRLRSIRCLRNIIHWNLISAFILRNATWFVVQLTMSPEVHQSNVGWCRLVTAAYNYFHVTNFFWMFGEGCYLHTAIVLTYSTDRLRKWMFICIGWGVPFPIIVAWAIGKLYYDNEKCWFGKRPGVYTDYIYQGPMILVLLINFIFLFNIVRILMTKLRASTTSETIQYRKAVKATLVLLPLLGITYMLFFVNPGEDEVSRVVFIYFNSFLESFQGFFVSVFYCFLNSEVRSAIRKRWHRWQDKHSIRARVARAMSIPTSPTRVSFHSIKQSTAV

The assay concerns the target human CRFR1 (Homo sapiens (Human), UniProt P34998). Put plainly: CRFR1 Binding Test.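 Further: nonspecific binding was determined with a 4,000-fold excess of unlabelled sauvagine and subtracted from every reading.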 The conditions noted are these: competition with 100 pM 125I-CRF, SPA method, membrane fraction of human CRFR1-expressing HEK293 cells; read-out: CRF1 receptor binding capacity IC50.
Take `COCc1cc(OC)c(-c2csc3c(N(CC(C)C)CC4(OC)CC4)c(OC)nn23)c(OC)c1` [Example 76, 3-[2,6-Dimethoxy-4-(methoxymethyl)phenyl]-N-isobutyl-6-methoxy-N-[(1-methoxycyclopropyl)methyl]pyrazolo[5,1-b][1,3]thiazole-7-amine]: the 50% inhibitory concentration (IC50) (usually the concentration at which inhibition is half-maximal) was determined as 37 nM.
With `COCc1cc(OC)c(-c2csc3c(N(CC4CCOC4)CC4CC(F)(F)C4)c(OC)nn23)c(OC)c1` (stereo not shown) [Example 37, N-[(3,3-Difluorocyclobutyl)methyl]-3-[2,6-dimethoxy-4-(methoxymethyl)phenyl]-6-methoxy-N-(tetrahydrofuran-3-ylmethyl)pyrazolo[5,1-b][1,3]thiazole-7-amine] the figure was 95 nM; with `CCCN(c1c(OC)nn2c(-c3c(OC)cc(C)cc3OC)csc12)C1CCOCC1` [Example 17, 3-(2,6-Dimethoxy-4-methylphenyl)-6-methoxy-N-propyl-N-(tetrahydro-2H-pyran-4-yl)pyrazolo[5,1-b][1,3]thiazole-7-amine], 56 nM.
Turning to `COCc1cc(OC)c(-c2csc3c(N(CC4CC4)CC(C)OC)c(OC)nn23)c(OC)c1` (stereo not shown) [Example 51, N-(Cyclopropylmethyl)-3-[2,6-dimethoxy-4-(methoxymethyl)phenyl]-6-methoxy-N-(2-methoxypropyl)pyrazolo[5,1-b][1,3]thiazole-7-amine], the 50% inhibitory concentration (IC50) stood at 36 nM.
On to `COc1cc(C2CC2)cc(OC)c1-c1csc2c(N(CC3CC3)CC3CCOC3)c(OC)nn12` (stereo not shown) [Example 60, 3-(4-Cyclopropyl-2,6-dimethoxyphenyl)-N-(cyclopropylmethyl)-6-methoxy-N-(tetrahydrofuran-3-ylmethyl)pyrazolo[5,1-b][1,3]thiazole-7-amine], for which the IC50 worked out at 33 nM.
For `COc1cc(C#N)cc(OC)c1-c1csc2c(N(CC3CC3)CC3C4COCC43)c(OC)nn12` (single isomer, unassigned; diastereomer 1) [Example 100], the IC50 came out at 89 nM.
With `CCCCN(c1c(OC)nn2c(-c3c(OC)cc(C=O)cc3OC)csc12)C1CCOCC1` [Example 103] the figure was 101 nM; with `CCCN(c1c(OC)nn2c(-c3c(OC)cc(COC)cc3OC)c(C)sc12)C1CCOCC1` [Example 7, [3-(2,6-Dimethoxy-4-methoxymethyl-phenyl)-6-methoxy-2-methyl-pyrazolo[5,1-b][1,3]thiazol-7-yl]-propyl-(tetrahydro-pyran-4-yl)-amine], 94 nM; with `CCCN(c1cccnc1)c1c(OC)nn2c(-c3c(OC)cc(COC)cc3OC)csc12` [Example 87, 3-[2,6-Dimethoxy-4-(methoxymethyl)phenyl]-6-methoxy-N-propyl-N-pyridin-3-ylpyrazolo[5,1-b][1,3]thiazole-7-amine], 36 nM.
For the compound `CCOCc1cc(OC)c(-c2csc3c(N(CC4CCC4)C4CCOC4)c(OC)nn23)c(OC)c1` (stereo not shown) [Example 47, N-(Cyclobutylmethyl)-3-[4-(ethoxymethyl)-2,6-dimethoxyphenyl]-6-methoxy-N-(tetrahydrofuran-3-yl)pyrazolo[5,1-b][1,3]thiazole-7-amine], the IC50 turned out to be 32 nM.
With `CCN(CC1C2COCC21)c1c(OC)nn2c(-c3c(OC)cc(C4CC4)cc3OC)csc12` (single isomer, unassigned; diastereomer 1) [Example 97, 3-(4-Cyclopropyl-2,6-dimethoxyphenyl)-N-ethyl-6-methoxy-N-[3-oxabicyclo[3.1.0]hex-6-ylmethyl]pyrazolo[5,1-b][1,3]thiazole-7-amine (diastereomer 1)], the IC50 turned out to be 80 nM.
The same measure for `CCCN(c1c(OC)nn2c(-c3c(OC)cc(COC)cc3OC)c(CC)sc12)C1CCOCC1` [Example 9, [3-(2,6-Dimethoxy-4-methoxymethyl-phenyl)-2-ethyl-6-methoxy-pyrazolo[5,1-b][1,3]thiazol-7-yl]-propyl-(tetrahydro-pyran-4-yl)-amine]: 116 nM.
For the compound `COCc1cc(OC)c(-c2csc3c(N(CC(C)C)C4CCOC4)c(OC)nn23)c(OC)c1` (stereo not shown) [Example 43, [3-(2,6-Dimethoxy-4-methoxymethylphenyl)-6-methoxy-pyrazolo[5,1-b][1,3]thiazol-7-yl]-isobutyl-(tetrahydrofuran-3-yl)-amine], the IC50 was 45 nM.
Take `CCCCN(CCOC)c1c(OC)nn2c(-c3c(OC)cc(COCC)cc3OC)csc12` [Example 41, N-Butyl-3-[4-(ethoxymethyl)-2,6-dimethoxyphenyl]-6-methoxy-N-(2-methoxyethyl)pyrazolo[5,1-b][1,3]thiazole-7-amine]: the IC50 amounted to 25 nM.
With `COCc1cc(OC)c(-c2csc3c(N(CCCF)Cc4cccnc4)c(OC)nn23)c(OC)c1` [Example 71, 3-[2,6-Dimethoxy-4-(methoxymethyl)phenyl]-N-(3-fluoropropyl)-6-methoxy-N-(pyridin-3-ylmethyl)-pyrazolo[5,1-b][1,3]thiazole-7-amine] the figure was 58 nM; with `CCc1cc(OC)c(-c2csc3c(N(CC4CC4)CC4CCOC4)c(OC)nn23)c(OC)c1` (stereo not shown) [Example 23, Cyclopropylmethyl-[3-(4-ethyl-2,6-dimethoxy-phenyl)-6-methoxy-pyrazolo[5,1-b][1,3]thiazol-7-yl]-(tetrahydro-furan-3-ylmethyl)amine], 44 nM; with `COCCCN(c1c(OC)nn2c(-c3c(Cl)cc(COC)cc3OC)csc12)C1CCCC1` [Example 73, 3-[2-Chloro-6-methoxy-4-(methoxymethyl)phenyl]-N-cyclopentyl-6-methoxy-N-(3-methoxypropyl)pyrazolo[5,1-b][1,3]thiazole-7-amine], 66 nM.
With `COCc1cc(OC)c(-c2csc3c(N(CCCF)c4cccnc4)c(OC)nn23)c(OC)c1` [Example 88, 3-[2,6-Dimethoxy-4-(methoxymethyl)phenyl]-N-(3-fluoropropyl)-6-methoxy-N-pyridin-3-ylpyrazolo[5,1-b][1,3]thiazole-7-amine] the figure was 53 nM; with `COc1cc(Cl)cc(OC)c1-c1csc2c(N(CC3CC3)CC3CCOC3)c(OC)nn12` (stereo not shown) [Example 30, 3-(4-Chloro-2,6-dimethoxyphenyl)-N-(cyclopropylmethyl)-6-methoxy-N-(tetrahydrofuran-3-ylmethyl)pyrazolo[5,1-b][1,3]thiazole-7-amine], 49 nM.
The same measure for `CCCN(CCC)c1c(OC)nn2c(-c3c(OC)cc(COC)cc3OC)csc12` [Example 24, 3-[2,6-Dimethoxy-4-(methoxymethyl)phenyl]-6-methoxy-N,N-dipropylpyrazolo[5,1-b][1,3]thiazole-7-amine]: 26 nM; for `CCCN(CCCOC)c1c(OC)nn2c(-c3c(OC)cc(COC)cc3OC)csc12` [Example 39, 3-[2,6-Dimethoxy-4-(methoxymethyl)phenyl]-6-methoxy-N-(3-methoxypropyl)-N-propylpyrazolo[5,1-b][1,3]thiazole-7-amine]: 57 nM.
`COCc1cc(OC)c(-c2csc3c(N(CC4CC4)c4cccnc4)c(OC)nn23)c(OC)c1` [Example 89, N-(Cyclopropylmethyl)-3-[2,6-dimethoxy-4-(methoxymethyl)phenyl]-6-methoxy-N-pyridin-3-ylpyrazolo[5,1-b][1,3]thiazole-7-amine]: the IC50 turned out to be 52 nM.
With `COCc1cc(OC)c(-c2csc3c(N(CCCF)Cc4ccccn4)c(OC)nn23)c(OC)c1` [Example 72, 3-[2,6-Dimethoxy-4-(methoxymethyl)phenyl]-N-(3-fluoropropyl)-6-methoxy-N-(pyridin-2-ylmethyl)-pyrazolo[5,1-b][1,3]thiazole-7-amine], the concentration for half-maximal inhibition (IC50) was determined as 75 nM.
For the compound `CCCN(CC1CCOC1)c1c(OCC)nn2c(-c3c(OC)cc(COC)cc3OC)csc12` (stereo not shown) [Example 84, 3-[2,6-Dimethoxy-4-(methoxymethyl)phenyl]-6-ethoxy-N-propyl-N-(tetrahydrofuran-3-ylmethyl)pyrazolo[5,1-b][1,3]thiazole-7-amine], the concentration for half-maximal inhibition (IC50) came to 51 nM.
Turning to `CCOCCN(CC1CC1)c1c(OC)nn2c(-c3c(OC)cc(COC)cc3OC)csc12` [Example 45, N-(Cyclopropylmethyl)-3-[2,6-dimethoxy-4-(methoxymethyl)phenyl]-N-(2-ethoxyethyl)-6-methoxypyrazolo[5,1-b][1,3]thiazole-7-amine], the IC50 was determined as 48 nM.
The same measure for `COc1cc(C(C)OC)cc(OC)c1-c1csc2c(N(CC3CC3)CC3CCOC3)c(OC)nn12` (stereo not shown) [Example 19, N-(Cyclopropylmethyl)-3-[2,6-dimethoxy-4-(1-methoxyethyl)phenyl]-6-methoxy-N-(tetrahydrofuran-3-ylmethyl)pyrazolo[5,1-b][1,3]thiazole-7-amine]: 52 nM; for `COCCN(c1c(OC)nn2c(-c3c(OC)cc(C#N)cc3OC)csc12)C1CCCC1` [Example 74, 4-{7-[Cyclopentyl(2-methoxyethyl)amino]-6-methoxypyrazolo[5,1-b][1,3]thiazol-3-yl}-3,5-dimethoxybenzonitrile]: 52 nM; for `CCN(c1c(OC)nn2c(-c3c(OC)cc(COC)cc3OC)csc12)C1CCC1` [Example 59, N-Cyclobutyl-3-[2,6-dimethoxy-4-(methoxymethyl)phenyl]-N-ethyl-6-methoxypyrazolo[5,1-b][1,3]thiazole-7-amine]: 24 nM.
The same measure for `CCCN(CC1CCOC1)c1c(OC)nn2c(-c3cnc(N(C)C)cc3OC)csc12` (stereo not shown) [Example 16, [3-(6-Dimethylamino-4-methoxy-pyridin-3-yl)-6-methoxy-pyrazolo[5,1-b][1,3]thiazol-7-yl]-propyl-(tetrahydro-furan-3-ylmethyl)-amine]: 132 nM.
With `CCN(c1c(OC)nn2c(-c3c(OC)cc(C4CC4)cc3OC)csc12)C1CCOCC1` [Example 64, 3-(4-Cyclopropyl-2,6-dimethoxyphenyl)-N-ethyl-6-methoxy-N-(tetrahydro-2H-pyran-4-yl)pyrazolo[5,1-b][1,3]thiazole-7-amine] the figure was 61 nM; with `CCCCN(c1c(SC)nn2c(-c3c(OC)cc(COC)cc3OC)csc12)C1CCOCC1` [Example 106, N-Butyl-3-[2,6-dimethoxy-4-(methoxymethyl)phenyl]-6-(methylthio)-N-(tetrahydro-2H-pyran-4-yl)pyrazolo[5,1-b][1,3]thiazole-7-amine], 83 nM.
